From US20260191999A1, “COMPOUNDS AND THEIR USE” (KING'S COLLEGE LONDON, priority 2022, published 2026)
pIC50: −log10 of the molar value.

Assays:
[1] = target: T1, human recombinant ALDH1A1 (Homo sapiens, UniProt P00352); assay: ALDH activity colorimetric assay (Biovision), ALDH1A1; type: biochemical; settings: Table 1, class symbols
T1 construct: purchased bio-techne
T1 sequence (P00352 1-501): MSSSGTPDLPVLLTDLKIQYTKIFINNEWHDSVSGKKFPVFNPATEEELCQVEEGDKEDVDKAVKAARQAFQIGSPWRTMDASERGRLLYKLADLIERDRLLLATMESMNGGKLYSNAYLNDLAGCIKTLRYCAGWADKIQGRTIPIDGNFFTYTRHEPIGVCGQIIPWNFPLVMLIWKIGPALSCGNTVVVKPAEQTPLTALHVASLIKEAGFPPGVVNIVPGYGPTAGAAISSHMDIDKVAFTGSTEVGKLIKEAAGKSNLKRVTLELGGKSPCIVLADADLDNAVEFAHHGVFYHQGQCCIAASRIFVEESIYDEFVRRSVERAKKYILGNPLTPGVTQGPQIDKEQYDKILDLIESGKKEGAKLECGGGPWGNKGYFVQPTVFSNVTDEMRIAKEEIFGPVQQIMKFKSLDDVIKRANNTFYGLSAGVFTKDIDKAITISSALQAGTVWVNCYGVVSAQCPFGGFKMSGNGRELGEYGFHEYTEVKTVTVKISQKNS
Procedure: ALDH substrate kinetics were measured using an ALDH activity colorimetric assay kit (Biovision) according to the manufacturer's instructions. 1 μg/well human recombinant ALDH1A1 (bio-techne), ALDH2 (abcam), or ALDH3A1 (ATGen Co., Ltd) were used. The assay was initiated by the addition of enzyme after all reagents were pre-warmed to 37° C. Plates were read in kinetic mode on a Multiskan FC plate reader (Thermo Scientific) at 450 nm over 40 min at 37° C.
The in vitro potency of the cold, non-radioactive reference compound compared against two different ALDH isoforms, ALDH1A1 and ALDH2 (using the ALDH activity colorimetric assay Kit (Biovision)).
Other reference compounds (PQM-C) were compared against ALDH1A1 (using the ALDH activity colorimetric assay Kit (Biovision)).

[2] = system: HEK293-ALDH1A1 and HEK293-WT human embryonic kidney cells; assay: Cell uptake of radiotracer, HEK293-ALDH1A1 vs HEK293-WT; type: cell-based; settings: ALDH1A1 positive vs ALDH1A1 negative cell line
Procedure: HEK293 stably overexpressing ALDH1A1 were obtained by infecting cells with lentiviral particles containing the nucleotide sequences encoding for human ALDH1A1 (Origene RC200723L^4V LentiORF particles (mGFP-tagged)). Briefly, 1×10^4 HEK-293 cells were seeded into a 24-well plate and maintained for 24 hours at 37° C., 5% CO2. Cells were then infected with the lentiviral particles using a multiplicity of infection (MOI) of 10 in the presence of hexadimethrine bromide (6 μg/mL) (Sigma-Aldrich, St. Louis, MO, USA). The next day, medium was removed and replaced with fresh medium. At 36 h post-infection, medium was replaced with complete culture medium containing puromycin (1 μg/ml) which caused 100% cell death in non-transduced control cells after 5 days. Cells resistant to puromycin were subjected to clonal selection by the limiting dilution method. Overexpression of ALDH1A1 was confirmed by western blots and real-time PCR.
(§1) For cell uptake studies SKOV3-ip1 and SKOV3-TRip2, A549-WT, A549-KO-ALDH1A1, HEK293-WT and HEK293-ALDH1A1 cells were plated in 6 well plates 24 h prior to the studies, as described above (Western Blotting). One mL of fresh media containing 0.37 MBq of PQM-H-001 and 6 KBq PQM-H-002 was added to each well for the desired incubation time. At 40 min, plates were placed on ice, washed three times with ice-cold PBS to remove exogenous radioactivity and lysed in RIPA buffer ([…]; Fisher Scientific Ltd).
For all cell uptake and efflux study decay-corrected radioactivity in lysates was determined on a gamma counter ([…]; Wallac 1282 CompuGamma counter), with the remaining cell lysate centrifuged (21,000×g for 10 min at 4° C.) and the supernatant used to determine protein concentration following radioactive decay using a Pierce BCA assay. To quantify radiotracer uptake in cells, three standard solutions of the radioactivity-containing medium were counted on the gamma counter. Data were expressed as a percentage of total radioactivity administered to cells per mg of protein. […]

[3] = system: A549-WT and A549-KO-ALDH1A1 human lung cancer cells; assay: Cell uptake of radiotracer, A549-WT vs A549-KO-ALDH1A1; type: cell-based; settings: ALDH1A1 positive vs ALDH1A1 negative cell line
Procedure: A549-KO-ALDH1A1 cells were obtained using an ALDH1A1 human gene knockout kit (Cat #KN400723) according to manufacturer's instructions (Origene, Rockville, MD, USA). Briefly, 3×10^5 A549 cells were seeded into a 6-well plate and maintained for 24 hours at 37° C., 5% CO2. Lipofectamine 3000 (Cat #L^3000, Invitrogen) was mixed with 1 μg of gRNA vector (pCas-guide) and 1 μg of donor template in Opti-MEM and added to cells for 16 hours. The next day, the transfection medium was removed and replaced with fresh medium. Forty-eight hours post-transfection, medium was replaced with fresh medium containing 0.5 μg/mL of puromycin (Cat #A1113803) which caused 100% cell death in non-transfected control cells after 5 days. Cells resistant to puromycin were subjected to clonal selection by the limiting dilution method. Knockout of protein was confirmed by western blots.
as §1
(§2) For all cell uptake and efflux study decay-corrected radioactivity in lysates was determined on a gamma counter ([…]; Wallac 1282 CompuGamma counter), with the remaining cell lysate centrifuged (21,000×g for 10 min at 4° C.) and the supernatant used to determine protein concentration following radioactive decay using a Pierce BCA assay. To quantify radiotracer uptake in cells, three standard solutions of the radioactivity-containing medium were counted on the gamma counter. Data were expressed as a percentage of total radioactivity administered to cells per mg of protein.
The following compounds were profiled in A549-WT (positive ALDH1A1) and A549-KO-ALDH1A1 (negative for ALDH1A1) human lung cancer cells as well as HEK293-WT (negative for ALDH1A1) and HEK293-ALDH1A1 (positive for ALDH1A1) human embryonic kidney cells. The fold difference in radiotracer retention for the ALDH1A1 positive cell lines as compared to the ALDH1A1 negative cell lines for each compound is shown in Table 2.

[4] = system: SKOV3-TRip2 and SKOV3-ip1 cells; assay: Cell uptake of radiotracer, drug-resistant vs drug-sensitive SKOV3 cells; type: cell-based, human
Procedure: as §1, §2
Next, the time-dependent uptake of the of the radiotracers PQM-H-001 ([^18F]PQM-H-001) and PQM-H-002 ([^125I]PQM-H-002) was profiled in drug-resistant SKOV3-Trip2 and drug-sensitive SKOV3-ip1 cell lines (Pereira, R., et al. 2019).

| pIC50 [1] | Structure (SMILES) | further results |
| --- | --- | --- |
| 7.00 to 8.00 | CS(=O)(=O)N1CCN(C(=O)c2cnc3c([N+](=O)[O-])cc(F)cc3c2-c2ccc(C3(C#N)CC3)cc2)CC1 [PQM-C-006, 1-(4-(6-Fluoro-3-(4-(methylsulfonyl)piperazine-1-carbonyl)-8-nitroquinolin-4-yl)phenyl)cyclopropane-1-carbonitrile] |  |
| 7.00 to 8.00 | CS(=O)(=O)N1CCN(C(=O)c2cnc3c([N+](=O)[O-])cc(I)cc3c2-c2ccc(C3(C#N)CC3)cc2)CC1 [PQM-C-007, 1-(4-(6-Iodo-3-(4-(methylsulfonyl)piperazine-1-carbonyl)-8-nitroquinolin-4-yl)phenyl)cyclopropane-1-carbonitrile] |  |
| 7.00 to 8.00 | CS(=O)(=O)N1CCN(C(=O)c2cnc3cc(F)ccc3c2-c2ccc(C3(C#N)CC3)cc2)CC1 [PQM-C-011, 1-(4-(7-Fluoro-3-(4-(methylsulfonyl)piperazine-1-carbonyl)quinolin-4-yl)phenyl)cyclopropane-1-carbonitrile] |  |
| 7.00 to 8.00 | CS(=O)(=O)N1CCN(C(=O)c2cnc3cc(I)ccc3c2-c2ccc(C3(C#N)CC3)cc2)CC1 [PQM-C-012, 1-(4-(7-Iodo-3-(4-(methylsulfonyl)piperazine-1-carbonyl)quinolin-4-yl)phenyl)cyclopropane-1-carbonitrile] |  |
| 7.00 to 8.00 | CS(=O)(=O)N1CCN(C(=O)c2cnc3c(F)cccc3c2-c2ccc(C3(C#N)CC3)cc2)CC1 [PQM-C-016, 1-(4-(8-Fluoro-3-(4-(methylsulfonyl)piperazine-1-carbonyl)quinolin-4-yl)phenyl)cyclopropane-1-carbonitrile] |  |
| 7.00 to 8.00 | CS(=O)(=O)N1CCN(C(=O)c2cnc3c(I)cccc3c2-c2ccc(C3(C#N)CC3)cc2)CC1 [PQM-C-017, 1-(4-(8-Iodo-3-(4-(methylsulfonyl)piperazine-1-carbonyl)quinolin-4-yl)phenyl)cyclopropane-1-carbonitrile] |  |
| ≥ 8.00 | CS(=O)(=O)N1CCN(C(=O)c2cnc3ccccc3c2-c2ccc(C3(C#N)CC3)c(F)c2)CC1 [PQM-C-021] |  |
| 5.00 to 6.00 | CS(=O)(=O)N1CCN(C(=O)c2cnc3ccccc3c2-c2ccc(C3(C#N)CC3)c(I)c2)CC1 [PQM-C-022, 1-(2-Iodo-4-(3-(4-(methylsulfonyl)piperazine-1-carbonyl)quinolin-4-yl)phenyl)cyclopropane-1-carbonitrile] |  |
| ≥ 8.00 | CS(=O)(=O)N1CCN(C(=O)c2cnc3ccccc3c2N2CCC(C#N)(c3ccc(F)cc3)CC2)CC1 [PQM-C-026, 4-(4-fluorophenyl)-1-(3-(4-(methylsulfonyl)piperazine-1-carbonyl)quinolin-4-yl)piperidine-4-carbonitrile] |  |
| 6.00 to 7.00 | CS(=O)(=O)N1CCN(C(=O)c2cnc3ccccc3c2N2CCC(C#N)(c3ccc(I)cc3)CC2)CC1 [PQM-C-027, 4-(4-iodophenyl)-1-(3-(4-(methylsulfonyl)piperazine-1-carbonyl)quinolin-4-yl)piperidine-4-carbonitrile] |  |
|  | CS(=O)(=O)N1CCN(C(=O)c2cnc3ccc([125I])cc3c2-c2ccc(C3(C#N)CC3)cc2)CC1 [PQM-H-002, 1-(4-(6-(iodo-^125I)-3-(4-(methylsulfonyl)piperazine-1-carbonyl)quinolin-4-yl)phenyl)cyclopropane-1-carbonitrile] | fold difference in radiotracer retention, HEK293-ALDH1A1 vs. HEK293-WT [2]: 56 fold; fold difference in radiotracer retention, A549-WT vs A549-KO-ALDH1A1 [3]: 40 fold; Radiotracer retention, drug resistant versus drug-sensitive cells [4]: 200 times higher |
|  | CS(=O)(=O)N1CCN(C(=O)c2cnc3c([N+](=O)[O-])cc([125I])cc3c2-c2ccc(C3(C#N)CC3)cc2)CC1 [PQM-H-007, 1-(4-(6-(iodo-^125I)-3-(4-(methylsulfonyl)piperazine-1-carbonyl)-8-nitroquinolin-4-yl)phenyl)cyclopropane-1-carbonitrile] | fold difference in radiotracer retention, HEK293-ALDH1A1 vs. HEK293-WT [2]: 2 fold; fold difference in radiotracer retention, A549-WT vs A549-KO-ALDH1A1 [3]: 17 fold |
|  | CS(=O)(=O)N1CCN(C(=O)c2cnc3c([125I])cccc3c2-c2ccc(C3(C#N)CC3)cc2)CC1 [PQM-H-017, 1-(4-(8-(fluoro-^125I)-3-(4-(methylsulfonyl)piperazine-1-carbonyl)quinolin-4-yl)phenyl)cyclopropane-1-carbonitrile] | fold difference in radiotracer retention, HEK293-ALDH1A1 vs. HEK293-WT [2]: 6 fold; fold difference in radiotracer retention, A549-WT vs A549-KO-ALDH1A1 [3]: 16 fold |
|  | CS(=O)(=O)N1CCN(C(=O)c2cnc3ccccc3c2-c2ccc(C3(C#N)CC3)c([125I])c2)CC1 [PQM-H-022, 1-(2-(fluoro-^125I)-4-(3-(4-(methylsulfonyl)piperazine-1-carbonyl)quinolin-4-yl)phenyl)cyclopropane-1-carbonitrile] | fold difference in radiotracer retention, A549-WT vs A549-KO-ALDH1A1 [3]: 6 fold |
